Experiments:
[1] = tested on: B16-F10 murine melanoma metastasis; test: In vivo experimental metastasis; design: species or system mouse (C57/black6); settings: 150 mpk i.p.
Procedure: C57/black6 female mice (6-7 weeks old) were randomized before any treatment into groups of 5 mice per treatment. Compounds of the invention were prepared as a fine suspension in 25% β-cyclodextran and administered i.p. in a volume of 0.2 ml per animal. Two hours after drug (or vehicle) injection, 0.2 ml of DPBS containing 1×10^5 B-16 F10 murine melanoma cells were injected i.v. into the tail vein. After 14 days, animals were sacrificed and lungs were removed. Metastatic lung colonies were counted by visual inspection.
*Pretreatment Time is the time between i.p. drug injection and i.v. tumor

[2] = tested on: PDGF-BB-stimulated mitogenesis of bovine smooth muscle cells; test: Smooth muscle cell mitogenesis test; type: cell-based
Procedure: The procedure for the Smooth Muscle Cell Mitogenesis test is given just below. The fibronectin adhesion inhibitor, compound B, was tested for inhibitory effects on PDGF (Platelet Derived Growth Factor) BB-stimulated mitogenesis of bovine smooth muscle cells. Cells were exposed to PDGF with and without compound B in 24-well plates for 16 hours.

PDGF receptor = PDGF receptor binding assay
pulmonary resistance = test: Pulmonary Resistance in the Anesthetized Rat; type: in vivo; settings: 0.5 mpk, i.v.; mean of 5 animals; % decrease in pre-drug baseline resistance
Procedure, shortened: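 Dialurethane-anesthetized rats (400-500 g) with tracheal and esophageal catheters; air flow and tracheal/esophageal pressures used to derive pulmonary resistance. Compounds given i.v. to 5 animals each; values are mean % decrease from pre-drug baseline resistance.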

| Structure (SMILES) | inhibition of in vivo metastasis relative to vehicle control ([1]; 2 hours before i.v. injection of melanoma) [%] | % Inhibition of lung metastasis ([1]; pretreatment time 30 min) [%] | Number of Lung Melanoma Colonies ([1]; pretreatment time 30 min) | % Inhibition of lung metastasis ([1]; pretreatment time 120 min) [%] | Number of Lung Melanoma Colonies ([1]; pretreatment time 120 min) | 3H-Thymidine Incorporation (dpm/1000 ± S.E.M.) ([2]; 0.1 μM + 1 ng/ml PDGF-BB) [dpm/1000] | 3H-Thymidine Incorporation (dpm/1000 ± S.E.M.) ([2]; 0.3 μM + 1 ng/ml PDGF-BB) [dpm/1000] | 3H-Thymidine Incorporation (dpm/1000 ± S.E.M.) ([2]; 1 μM + 1 ng/ml PDGF-BB) [dpm/1000] | 3H-Thymidine Incorporation (dpm/1000 ± S.E.M.) ([2]; 3 μM + 1 ng/ml PDGF-BB) [dpm/1000] | cell detachment ([2]; 10 μM) | 3H-Thymidine Incorporation (dpm/1000 ± S.E.M.) ([2]; 10 μM + 1 ng/ml PDGF-BB) [dpm/1000] | inhibition at 0.1 µM ([2]; Bos taurus, 0.1 μM + 1 ng/ml PDGF-BB) [%] | inhibition at 0.3 µM ([2]; Bos taurus, 0.3 μM + 1 ng/ml PDGF-BB) [%] | inhibition at 1 µM ([2]; Bos taurus, 1 μM + 1 ng/ml PDGF-BB) [%] | inhibition at 3 µM ([2]; Bos taurus, 3 μM + 1 ng/ml PDGF-BB) [%] | inhibition at 10 µM ([2]; Bos taurus, 10 μM + 1 ng/ml PDGF-BB) [%] | IC50 ([2]; Bos taurus, 16 hours, read-out: inhibition of PDGF-stimulated mitogenesis IC50) [nM] | inhibition of PDGF binding (PDGF receptor) | Pulmonary Resistance in Rats, % Inhibition (pulmonary resistance) [%] |
| --- | --- | --- | --- | --- | --- | --- | --- | --- | --- | --- | --- | --- | --- | --- | --- | --- | --- | --- | --- |
| COc1ccc(C2=C3CC4CCC(N4)C3c3ccccc32)cc1 (stereo not shown) [Compound B] | 73 | 55.7 | 35.2 ± 13.9 | 72.5 | 21.8 ± 2.0 | 406.8 ± 30.2 | 347.7 ± 9.8 | 156.3 ± 7.2 | 17.0 ± 1.9 | caused cells to detach from the plate | 7.3 ± 5.3 | -2.7 | 18.5 | 87.1 | 137 | 140 | 520 | not to inhibit PDGF binding directly |  |
| Cc1ccc(C2=C3CC4CCC(C3c3ccccc32)N4C)cc1 (stereo not shown) [J] |  |  |  |  |  |  |  |  |  |  |  |  |  |  |  |  |  |  | 35 |

Source: patent publication US5461057A, “Hydro-ethano-indeno-pyridines” (priority 1994, dated 1995)
